Results as given in patent publication US11969428B2, “Methods and pharmaceutical compositions for treating lymphoid malignancy” (priority 2011, dated 2024).

Tests used:
Assay in all cases: Ambit KinomeScan screening
Type in all cases: binding
Conditions in all cases: CAL-130 10 μM
ACVR1 = molecular target: T1, ACVR1 (Homo sapiens, UniProt Q04771)
T1 construct: unspecified tag ("tagged kinases"); purchased Ambit (KinomeScan screening)
Summary of the method: (§1)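 Read-out is % of control binding: the tagged kinase retained on an immobilized bait ligand when CAL-130 is present at 10 μM. A lower percentage reflects stronger compound interaction, and anything over 35% counts as no hit.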

ACVR2B = molecular target: T2, ACVR2B (Homo sapiens, UniProt Q13705)
T2 construct: purchased Ambit (KinomeScan screening)
Summary of the method: as §1

BRAF = molecular target: T3, BRAF (Homo sapiens, UniProt P15056)
T3 construct: unspecified tag ("tagged kinases"); purchased Ambit (KinomeScan screening)
Summary of the method: as §1

CDK9 = molecular target: T4, CDK9 (Homo sapiens, UniProt P50750)
T4 construct: purchased Ambit (KinomeScan screening service)
T4 sequence (P50750 whole entry): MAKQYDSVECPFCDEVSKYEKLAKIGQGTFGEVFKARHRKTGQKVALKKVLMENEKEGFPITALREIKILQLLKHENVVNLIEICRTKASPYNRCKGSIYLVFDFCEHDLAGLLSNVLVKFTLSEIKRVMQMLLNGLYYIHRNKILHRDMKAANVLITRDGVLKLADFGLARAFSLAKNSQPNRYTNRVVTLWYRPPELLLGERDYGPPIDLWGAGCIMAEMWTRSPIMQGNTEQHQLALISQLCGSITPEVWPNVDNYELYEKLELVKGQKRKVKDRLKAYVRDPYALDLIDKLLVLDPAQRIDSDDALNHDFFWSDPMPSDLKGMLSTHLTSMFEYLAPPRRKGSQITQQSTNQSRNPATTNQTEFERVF
Summary of the method: as §1

CLK2 = molecular target: T5, CLK2 (Homo sapiens, UniProt P49760)
T5 construct: purchased Ambit (KinomeScan screening service)
Summary of the method: as §1

CSNK1G1 = molecular target: T6, CSNK1G1 (Homo sapiens, UniProt Q9HCP0)
T6 construct: purchased Ambit (KinomeScan screening service)
Summary of the method: as §1

DAPK2 = molecular target: T7, DAPK2 (Homo sapiens, UniProt Q9UIK4)
T7 construct: purchased Ambit (KinomeScan screening service)
Summary of the method: as §1

DDR2 = molecular target: T8, DDR2 (Homo sapiens, UniProt Q16832)
T8 construct: unspecified tag ("tagged kinases"); purchased Ambit (KinomeScan screening service)
Summary of the method: as §1

DYRK2 = molecular target: T9, DYRK2 (Homo sapiens, UniProt Q92630)
T9 construct: unspecified tag; purchased Ambit (KinomeScan screening service)
T9 sequence (Q92630 whole entry): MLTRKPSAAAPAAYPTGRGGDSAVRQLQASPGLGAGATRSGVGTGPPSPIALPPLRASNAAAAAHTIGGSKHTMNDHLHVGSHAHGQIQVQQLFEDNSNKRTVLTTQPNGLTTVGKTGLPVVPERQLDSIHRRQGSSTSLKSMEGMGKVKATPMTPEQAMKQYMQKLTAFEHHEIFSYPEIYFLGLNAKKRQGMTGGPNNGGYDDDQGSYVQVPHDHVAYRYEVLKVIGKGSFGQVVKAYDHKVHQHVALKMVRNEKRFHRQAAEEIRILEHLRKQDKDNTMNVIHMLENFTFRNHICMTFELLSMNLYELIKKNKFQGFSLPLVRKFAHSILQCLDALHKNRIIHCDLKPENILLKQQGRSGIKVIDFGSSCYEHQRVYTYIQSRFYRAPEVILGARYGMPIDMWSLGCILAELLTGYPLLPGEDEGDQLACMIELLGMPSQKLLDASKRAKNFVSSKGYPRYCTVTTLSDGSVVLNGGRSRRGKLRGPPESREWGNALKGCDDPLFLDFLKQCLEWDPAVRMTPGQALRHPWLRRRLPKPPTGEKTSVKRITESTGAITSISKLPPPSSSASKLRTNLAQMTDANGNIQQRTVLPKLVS
Summary of the method: as §1

EGFR(L747-T751DEL, SINS) = molecular target: T10, EGFR(L747-T751DEL, SINS) (Homo sapiens, UniProt P00533, DEL747-750/T751S)
T10 construct: unspecified tag; purchased Ambit (KinomeScan screening service)
Summary of the method: as §1

EGFR(L858R) = molecular target: T11, EGFR(L858R) (Homo sapiens, UniProt P00533, L858R)
T11 construct: unspecified tag; purchased Ambit (KinomeScan screening service)
Summary of the method: as §1

EGFR(S752-I759DEL) = molecular target: T12, EGFR(S752-I759DEL) (Homo sapiens, UniProt P00533, DEL752-759)
T12 construct: unspecified tag; purchased Ambit (KinomeScan screening service)
Summary of the method: as §1

EPHB2 = molecular target: T13, EPHB2 (Homo sapiens, UniProt P29323)
T13 construct: purchased Ambit (KinomeScan screening service)
Summary of the method: as §1

ERN1 = molecular target: T14, ERN1 (Homo sapiens, UniProt O75460)
T14 construct: unspecified tag ("tagged kinases"); purchased Ambit (KinomeScan screening service)
Summary of the method: as §1

FLT3(K663Q) = molecular target: T15, FLT3(K663Q) (Homo sapiens, UniProt P36888, K663Q)
T15 construct: unspecified tag; purchased Ambit (KinomeScan screening service)
Summary of the method: as §1

IKK-[…] = molecular target: T16, IKK-[…] (Homo sapiens, UniProt Q14164)
T16 construct: Ambit (KinomeScan screening)
T16 sequence (Q14164 whole entry): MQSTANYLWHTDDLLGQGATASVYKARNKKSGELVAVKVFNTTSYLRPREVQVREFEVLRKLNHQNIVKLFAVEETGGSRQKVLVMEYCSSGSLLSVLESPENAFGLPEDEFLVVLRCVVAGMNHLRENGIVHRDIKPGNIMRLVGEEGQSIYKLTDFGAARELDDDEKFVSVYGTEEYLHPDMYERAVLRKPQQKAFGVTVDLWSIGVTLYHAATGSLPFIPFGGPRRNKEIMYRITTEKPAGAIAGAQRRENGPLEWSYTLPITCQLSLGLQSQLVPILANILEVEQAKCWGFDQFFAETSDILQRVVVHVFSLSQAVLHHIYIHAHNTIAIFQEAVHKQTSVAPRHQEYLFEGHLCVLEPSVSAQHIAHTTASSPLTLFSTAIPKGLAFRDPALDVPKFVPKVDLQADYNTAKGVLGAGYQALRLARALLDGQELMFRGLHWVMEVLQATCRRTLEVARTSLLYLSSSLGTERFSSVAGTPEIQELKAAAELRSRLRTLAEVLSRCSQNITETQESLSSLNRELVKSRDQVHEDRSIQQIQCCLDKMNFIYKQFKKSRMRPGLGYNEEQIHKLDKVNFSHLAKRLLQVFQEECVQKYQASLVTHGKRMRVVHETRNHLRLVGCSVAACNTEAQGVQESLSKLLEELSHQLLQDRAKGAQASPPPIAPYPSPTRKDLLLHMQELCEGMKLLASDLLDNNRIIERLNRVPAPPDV
Summary of the method: as §1

JAK1(JH1domain) = molecular target: T17, JAK1(JH1domain) (Homo sapiens, UniProt P23458)
T17 construct: JAK1(JH1domain); purchased Ambit (KinomeScan screening)
Summary of the method: as §1

JNK2 = molecular target: T18, JNK2 (Homo sapiens, UniProt P45984)
T18 construct: purchased Ambit (KinomeScan screening)
Summary of the method: as §1

LIMK1 = molecular target: T19, LIMK1 (Homo sapiens, UniProt P53667)
T19 construct: unspecified tag ('tagged kinases'); purchased Ambit (KinomeScan screening service)
Summary of the method: as §1

LOK = molecular target: T20, LOK (Homo sapiens, UniProt O94804)
T20 construct: unspecified tag ('tagged kinases'); purchased Ambit (KinomeScan screening service)
Summary of the method: as §1

MST1R = molecular target: T21, MST1R (Homo sapiens, UniProt Q04912)
T21 construct: unspecified tag ('tagged kinases'); purchased Ambit (KinomeScan screening)
Summary of the method: as §1

NEK2 = molecular target: T22, NEK2 (Homo sapiens, UniProt P51955)
T22 construct: unspecified tag; purchased Ambit (KinomeScan screening panel)
Summary of the method: as §1

PIK3CB = molecular target: T23, PIK3CB (Homo sapiens, UniProt P42338)
T23 construct: unspecified tag; purchased Ambit (KinomeScan screening panel)
T23 sequence (P42338 whole entry): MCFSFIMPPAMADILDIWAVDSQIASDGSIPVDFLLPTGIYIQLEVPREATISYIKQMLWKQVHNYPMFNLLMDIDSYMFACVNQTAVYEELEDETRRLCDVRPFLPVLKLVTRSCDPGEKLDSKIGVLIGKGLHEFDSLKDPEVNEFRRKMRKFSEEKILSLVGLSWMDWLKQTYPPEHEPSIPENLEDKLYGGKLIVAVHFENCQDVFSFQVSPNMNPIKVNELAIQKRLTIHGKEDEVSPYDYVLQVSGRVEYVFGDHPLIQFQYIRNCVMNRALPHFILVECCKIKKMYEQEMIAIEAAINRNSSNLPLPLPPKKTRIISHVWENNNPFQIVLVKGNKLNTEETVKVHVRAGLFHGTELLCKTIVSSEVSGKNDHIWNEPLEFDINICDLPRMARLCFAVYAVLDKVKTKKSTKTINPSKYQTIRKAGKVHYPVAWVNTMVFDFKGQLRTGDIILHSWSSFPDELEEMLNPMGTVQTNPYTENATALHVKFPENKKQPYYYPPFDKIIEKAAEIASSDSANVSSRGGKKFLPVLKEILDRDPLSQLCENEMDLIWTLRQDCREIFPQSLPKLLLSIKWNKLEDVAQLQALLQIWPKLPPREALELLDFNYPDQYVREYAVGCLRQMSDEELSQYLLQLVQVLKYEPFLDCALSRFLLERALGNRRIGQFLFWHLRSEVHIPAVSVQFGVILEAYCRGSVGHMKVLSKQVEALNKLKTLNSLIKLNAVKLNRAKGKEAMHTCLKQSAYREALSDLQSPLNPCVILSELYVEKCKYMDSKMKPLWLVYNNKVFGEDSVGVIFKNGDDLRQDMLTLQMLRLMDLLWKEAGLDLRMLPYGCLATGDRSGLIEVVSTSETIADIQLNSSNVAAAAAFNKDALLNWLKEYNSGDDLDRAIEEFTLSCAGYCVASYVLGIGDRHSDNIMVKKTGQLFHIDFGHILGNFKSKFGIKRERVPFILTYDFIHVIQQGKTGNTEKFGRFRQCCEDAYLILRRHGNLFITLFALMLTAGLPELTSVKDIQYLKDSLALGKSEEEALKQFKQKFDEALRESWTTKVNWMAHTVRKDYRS
Summary of the method: as §1

PIK4CB = molecular target: T24, PIK4CB (Homo sapiens, UniProt Q9UBF8)
T24 construct: unspecified tag; purchased Ambit (KinomeScan screening panel)
T24 sequence (Q9UBF8 whole entry): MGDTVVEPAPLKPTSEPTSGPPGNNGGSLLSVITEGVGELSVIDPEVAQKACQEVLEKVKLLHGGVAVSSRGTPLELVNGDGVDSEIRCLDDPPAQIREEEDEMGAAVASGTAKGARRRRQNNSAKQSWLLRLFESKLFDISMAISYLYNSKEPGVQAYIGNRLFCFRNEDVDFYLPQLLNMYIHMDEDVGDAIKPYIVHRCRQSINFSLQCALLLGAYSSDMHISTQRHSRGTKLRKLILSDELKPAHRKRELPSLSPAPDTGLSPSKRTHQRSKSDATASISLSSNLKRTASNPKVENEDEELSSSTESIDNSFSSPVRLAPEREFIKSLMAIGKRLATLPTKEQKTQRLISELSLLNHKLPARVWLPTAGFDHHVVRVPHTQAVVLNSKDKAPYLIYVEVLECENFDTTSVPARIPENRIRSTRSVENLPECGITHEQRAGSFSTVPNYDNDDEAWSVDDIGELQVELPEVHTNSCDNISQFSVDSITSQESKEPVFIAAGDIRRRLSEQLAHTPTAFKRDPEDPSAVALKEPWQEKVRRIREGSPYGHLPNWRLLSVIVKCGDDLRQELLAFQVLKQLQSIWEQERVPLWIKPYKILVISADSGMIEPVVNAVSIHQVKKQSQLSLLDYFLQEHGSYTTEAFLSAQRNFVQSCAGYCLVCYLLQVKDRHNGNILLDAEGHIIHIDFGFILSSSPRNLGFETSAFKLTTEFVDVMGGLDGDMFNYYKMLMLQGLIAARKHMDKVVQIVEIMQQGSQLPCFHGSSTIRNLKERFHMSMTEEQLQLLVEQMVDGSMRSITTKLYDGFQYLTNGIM
Summary of the method: as §1

PIM3 = molecular target: T25, PIM3 (Homo sapiens, UniProt Q86V86)
T25 construct: unspecified tag; purchased Ambit (KinomeScan screening panel)
Summary of the method: as §1

PRKD1 = molecular target: T26, PRKD1 (Homo sapiens, UniProt Q15139)
T26 construct: purchased Ambit (KinomeScan screening service)
T26 sequence (Q15139 whole entry): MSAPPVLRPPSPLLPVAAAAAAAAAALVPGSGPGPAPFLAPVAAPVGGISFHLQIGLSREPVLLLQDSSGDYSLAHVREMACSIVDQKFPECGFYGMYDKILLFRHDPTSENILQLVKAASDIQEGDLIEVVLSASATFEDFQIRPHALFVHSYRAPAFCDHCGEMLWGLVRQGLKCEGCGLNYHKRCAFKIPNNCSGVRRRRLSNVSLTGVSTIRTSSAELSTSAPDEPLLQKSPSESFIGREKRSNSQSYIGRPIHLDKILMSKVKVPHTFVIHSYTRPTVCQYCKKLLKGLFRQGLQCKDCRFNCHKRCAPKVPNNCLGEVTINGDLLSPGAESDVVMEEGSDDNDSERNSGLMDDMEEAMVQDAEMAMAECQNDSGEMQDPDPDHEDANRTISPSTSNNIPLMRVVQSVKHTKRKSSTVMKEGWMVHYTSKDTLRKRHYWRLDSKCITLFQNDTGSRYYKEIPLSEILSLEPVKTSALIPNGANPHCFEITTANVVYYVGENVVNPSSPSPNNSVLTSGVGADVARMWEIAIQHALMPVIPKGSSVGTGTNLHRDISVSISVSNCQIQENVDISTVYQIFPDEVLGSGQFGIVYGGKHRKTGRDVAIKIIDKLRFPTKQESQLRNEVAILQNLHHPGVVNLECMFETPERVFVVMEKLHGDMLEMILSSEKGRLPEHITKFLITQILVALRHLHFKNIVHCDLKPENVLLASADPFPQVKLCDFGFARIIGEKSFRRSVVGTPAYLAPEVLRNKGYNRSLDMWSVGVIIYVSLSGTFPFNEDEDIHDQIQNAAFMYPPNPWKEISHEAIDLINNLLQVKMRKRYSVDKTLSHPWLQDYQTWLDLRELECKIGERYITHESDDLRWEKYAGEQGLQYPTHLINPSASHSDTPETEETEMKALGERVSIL
Summary of the method: as §1

QSK = molecular target: T27, QSK (Homo sapiens, UniProt Q9Y2K2)
T27 construct: tag (kind not specified); purchased Ambit (KinomeScan screening service)
Summary of the method: as §1

RIPK2 = molecular target: T28, RIPK2 (Homo sapiens, UniProt O43353)
T28 construct: unspecified tag (tagged kinase); purchased Ambit (KinomeScan screening)
Summary of the method: as §1

ROCK2 = molecular target: T29, ROCK2 (Homo sapiens, UniProt O75116)
T29 construct: unspecified tag (tagged kinase); purchased Ambit (KinomeScan screening)
Summary of the method: as §1

RPS6KA3 = molecular target: T30, RPS6KA3 (Homo sapiens, UniProt P51812)
T30 construct: unspecified tag (tagged kinase); purchased Ambit (KinomeScan screening)
Summary of the method: as §1

RPS6KA5 = molecular target: T31, RPS6KA5 (Homo sapiens, UniProt O75582)
T31 construct: tag, kind not specified; purchased Ambit (KinomeScan screening service)
Summary of the method: as §1

YANK2 = molecular target: T32, YANK2 (Homo sapiens, UniProt Q9NY57)
T32 construct: purchased Ambit (KinomeScan screening service)
Summary of the method: as §1

YSK1 = molecular target: T33, YSK1 (Homo sapiens, UniProt O00506)
T33 construct: purchased Ambit (KinomeScan screening service)
Summary of the method: as §1

ZAP70 = molecular target: T34, ZAP70 (Homo sapiens, UniProt P43403)
T34 construct: purchased Ambit (KinomeScan screening service)
Summary of the method: as §1

p38-δ = molecular target: T35, p38-δ (Homo sapiens, UniProt O15264)
T35 construct: purchased Ambit (KinomeScan screening service)
Summary of the method: as §1

Measured: Percent of Control Binding

Cc1ccccc1-n1c(C(C)Nc2nc(N)nc3nc[nH]c23)nc2cccc(C)c2c1=O (stereo not drawn) [CAL-130]
100%: ACVR1 | ACVR2B | BRAF | CDK9 | CLK2 | CSNK1G1 | DAPK2 | DDR2 | DYRK2 | EGFR(L747-T751DEL, SINS) | EGFR(L858R) | EGFR(S752-I759DEL) | EPHB2 | ERN1 | FLT3(K663Q) | IKK-[…] | JAK1(JH1domain) | JNK2 | LIMK1 | LOK | MST1R | NEK2 | PIK4CB | PIM3 | PRKD1 | QSK | RIPK2 | ROCK2 | RPS6KA3 | RPS6KA5 | YANK2 | YSK1 | ZAP70 | p38-δ
3.2%: PIK3CB; PIK3CB (Table 1)
10%: PIK3CB; PI3KCB (Table 2)
